Assay results published in ChEMBL document CHEMBL1201862, “PubChem BioAssay data set” (2004).
Each block holds one molecule with its values, some of them ahead of it. The source made the active and inactive calls.

Tests used:
Phospholipase D2 [1] = biological target: T1, Phospholipase D2 (Homo sapiens, UniProt O14939); assay: cellular phospholipase D2 inhibition IC50 – cell-based, dose response (AID 602147); type: functional;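 also: cellular assay in HEK293 cells overexpressing GFP-tagged PLD2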
Phospholipase D1 [2] = biological target: T2, Phospholipase D1 (Homo sapiens, UniProt Q13393); assay: PLD1 purified enzyme concentration response. [Related pubchem assays (depositor defined):AID588854]; type: functional
T2 sequence (Q13393 whole entry): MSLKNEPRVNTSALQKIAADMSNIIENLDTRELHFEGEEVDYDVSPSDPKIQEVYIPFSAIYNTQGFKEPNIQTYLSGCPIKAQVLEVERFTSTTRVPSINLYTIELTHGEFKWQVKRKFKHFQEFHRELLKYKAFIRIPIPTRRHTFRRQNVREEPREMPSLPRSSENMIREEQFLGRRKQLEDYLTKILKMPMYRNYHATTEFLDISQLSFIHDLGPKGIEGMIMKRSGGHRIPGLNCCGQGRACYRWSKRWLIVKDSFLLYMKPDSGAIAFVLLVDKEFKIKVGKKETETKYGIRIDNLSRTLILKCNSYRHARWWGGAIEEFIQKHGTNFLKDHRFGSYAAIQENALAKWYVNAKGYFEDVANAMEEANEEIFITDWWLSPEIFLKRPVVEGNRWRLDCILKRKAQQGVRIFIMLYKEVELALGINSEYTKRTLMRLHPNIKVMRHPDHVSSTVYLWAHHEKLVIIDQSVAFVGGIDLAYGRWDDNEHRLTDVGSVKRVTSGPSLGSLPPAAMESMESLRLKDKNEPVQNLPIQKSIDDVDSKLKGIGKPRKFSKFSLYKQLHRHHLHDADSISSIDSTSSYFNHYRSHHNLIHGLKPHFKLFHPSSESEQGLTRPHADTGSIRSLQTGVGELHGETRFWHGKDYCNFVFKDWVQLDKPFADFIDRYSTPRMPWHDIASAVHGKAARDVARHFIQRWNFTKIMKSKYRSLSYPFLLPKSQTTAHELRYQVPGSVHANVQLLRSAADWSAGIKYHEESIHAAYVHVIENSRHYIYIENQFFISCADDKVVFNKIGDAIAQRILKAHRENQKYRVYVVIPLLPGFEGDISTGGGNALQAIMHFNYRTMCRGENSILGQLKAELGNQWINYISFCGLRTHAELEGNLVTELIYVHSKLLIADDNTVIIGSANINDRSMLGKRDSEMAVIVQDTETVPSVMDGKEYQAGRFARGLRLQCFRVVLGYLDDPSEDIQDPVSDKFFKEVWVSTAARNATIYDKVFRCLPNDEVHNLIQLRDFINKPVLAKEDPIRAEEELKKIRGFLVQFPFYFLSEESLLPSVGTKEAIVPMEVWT

Phospholipase D1 [3] = biological target: T2, Phospholipase D1; assay: cellular phospholipase D1 inhibition IC50 – cell-based, dose response (AID 602151); type: functional;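 also: cellular PLD1 assay in Calu-1 cells stimulated with PMA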
Phospholipase D2 [4] = biological target: T1, Phospholipase D2; assay: PLD2 purified enzyme concentration response. [Related pubchem assays (depositor defined):AID588854]; type: functional
[5] = biological target: T3, Glycogen synthase kinase-3 beta (Homo sapiens, UniProt P49841); assay: Inhibition of Human GSK-3 beta Activity Measured in Biochemical System Using Microfluidics - 2063-05_Inhibitor_Dose_DryPowder_Activity_Set2. [Related pubchem assays (depositor defined):AID2709]
T3 sequence (P49841 whole entry): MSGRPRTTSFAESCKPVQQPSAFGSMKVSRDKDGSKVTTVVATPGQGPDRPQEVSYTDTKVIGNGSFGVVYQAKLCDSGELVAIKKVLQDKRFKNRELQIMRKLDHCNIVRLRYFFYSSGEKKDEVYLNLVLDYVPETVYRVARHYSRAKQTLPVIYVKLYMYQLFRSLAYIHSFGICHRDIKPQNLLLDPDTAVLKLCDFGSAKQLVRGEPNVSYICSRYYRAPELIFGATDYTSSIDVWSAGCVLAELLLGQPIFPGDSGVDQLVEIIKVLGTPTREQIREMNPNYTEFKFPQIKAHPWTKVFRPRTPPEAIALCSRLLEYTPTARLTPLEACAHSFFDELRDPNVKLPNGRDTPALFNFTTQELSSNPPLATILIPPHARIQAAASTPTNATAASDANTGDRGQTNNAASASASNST

[6] = biological target: Cyclin-dependent kinase 5/CDK5 activator 1 (Homo sapiens, UniProt Q00535); assay: human CDK5 activity blockade – biochemical, microfluidic mobility shift, dry powder, selectivity assay for GSK-3 alpha inhibitor project, dose response (AID 588430)
[7] = biological target: T4, Glycogen synthase kinase-3 alpha (Homo sapiens, UniProt P49840); assay: Inhibition of Human GSK-3 alpha Activity Measured in Biochemical System Using Microfluidics - 2063-06_Inhibitor_Dose_DryPowder_Activity_Set2. [Related pubchem assays (depositor defined):AID2709]
T4 sequence (P49840 whole entry): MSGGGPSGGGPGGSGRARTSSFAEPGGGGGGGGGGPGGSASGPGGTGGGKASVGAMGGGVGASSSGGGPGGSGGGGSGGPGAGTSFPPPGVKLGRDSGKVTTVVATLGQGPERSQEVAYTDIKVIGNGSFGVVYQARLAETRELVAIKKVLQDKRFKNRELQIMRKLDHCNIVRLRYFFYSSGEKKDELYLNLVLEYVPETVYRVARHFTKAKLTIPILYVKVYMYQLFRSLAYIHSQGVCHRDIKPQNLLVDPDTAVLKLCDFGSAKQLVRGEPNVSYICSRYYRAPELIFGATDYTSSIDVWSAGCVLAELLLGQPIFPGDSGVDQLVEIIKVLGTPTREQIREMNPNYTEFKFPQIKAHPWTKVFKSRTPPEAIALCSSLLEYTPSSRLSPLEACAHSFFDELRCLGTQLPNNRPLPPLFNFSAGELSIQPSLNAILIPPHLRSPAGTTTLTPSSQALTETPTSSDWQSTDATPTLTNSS

[8] = biological target: T3, Glycogen synthase kinase-3 beta; assay: Inhibition of Human GSK-3 beta Activity Measured in Biochemical System Using Microfluidics - 2063-05_Inhibitor_Dose_DryPowder_Activity. [Related pubchem assays (depositor defined):AID2709]
[9] = biological target: T4, Glycogen synthase kinase-3 alpha; assay: Inhibition of Human GSK-3 alpha Activity Measured in Biochemical System Using Microfluidics - 2063-06_Inhibitor_Dose_DryPowder_Activity. [Related pubchem assays (depositor defined):AID2709]
[10] = biological target: Voltage-gated inwardly rectifying potassium channel KCNH2 (Homo sapiens, UniProt Q12809); settings: Potency;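 also: confirmatory quantitative high-throughput screen measuring inhibition of hERG channel activity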
[11] = biological target: T5, Carboxy-terminal domain RNA polymerase II polypeptide A small phosphatase 1 (Homo sapiens, UniProt Q9GZU7); assay: CTDSP1 inhibitors, concentration-response, biochemical, absorbance readout, ultra-high-throughput screen actives (AID 540297); type: functional
T5 sequence (Q9GZU7 whole entry): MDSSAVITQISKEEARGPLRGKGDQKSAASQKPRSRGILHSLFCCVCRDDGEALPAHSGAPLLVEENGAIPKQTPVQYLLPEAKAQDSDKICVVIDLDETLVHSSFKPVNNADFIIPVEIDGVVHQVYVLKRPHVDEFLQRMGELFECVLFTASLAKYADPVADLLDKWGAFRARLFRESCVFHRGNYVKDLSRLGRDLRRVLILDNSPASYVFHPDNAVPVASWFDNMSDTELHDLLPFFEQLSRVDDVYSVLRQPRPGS

Cysteine protease ATG4B = Cysteine protease ATG4B (Homo sapiens, UniProt Q9Y4P1); type: functional;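 also: Fluorescence-based dose-response confirmation assay measuring inhibition of ATG4B activity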
[12] = CCR5-tropic HIV-1 fusion blockers – cell-based, CCR5-tropic Env, dose response (AID 2279); type: functional
Phospholipase A2 = Phospholipase A2 (Homo sapiens, UniProt P04054); type: functional;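 also: confirmatory dose-response counterscreen on phospholipase A2, testing hits that came from an ultra-high-throughput screen for ATG4B inhibitors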
[13] = biological target: Envelope glycoprotein gp160 (Human immunodeficiency virus 1, UniProt Q6QLK5); assay: cell-free HIV fusion peptide-binding blockers – biochemical, uHTS, fluorescence dequenching, […] (AID 1986)
[14] = biological target: Cyclin-dependent kinase 5 (Homo sapiens, UniProt Q00535); type: functional;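 also: CDK5 measured as one member of a kinase profiling panel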
[15] = biological target: Cyclin-dependent kinase 2 (Homo sapiens, UniProt P24941); type: functional;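 also: CDK2 measured as one member of a broad kinome profiling panel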
[16] = biological target: MAP kinase-activated protein kinase 3 (Homo sapiens, UniProt Q16644); type: functional;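 also: value comes from a kinome-wide profiling panel in which MAPKAPK3 is one of the panel members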
[17] = biological target: Casein kinase I isoform delta (Homo sapiens, UniProt P48730); type: functional;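 also: measured as one member (CSNK1D) of a kinome panel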
[18] = biological target: Serine/threonine-protein kinase Chk2 (Homo sapiens, UniProt O96017); type: functional;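 also: CHEK2 entry within a kinome-wide screening panel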
[19] = biological target: Cyclin-dependent kinase 1 (Homo sapiens, UniProt P06493); type: functional;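 also: Kinome-wide panel profiling, with the target listed as panel member CDC2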
HSP90 = HSP90 (Plasmodium falciparum 3D7, UniProt Q8IL32); type: functional, organism-based
[20] = biological target: T6, Heat shock protein HSP 90-alpha (Homo sapiens, UniProt P07900); type: functional, organism-based
[21] = biological target: C-C chemokine receptor type 6 (Homo sapiens, UniProt P51684); assay: antagonism of CCR6 beta-arrestin recruitment – cell-based, luminescent beta-arrestin readout, dose response (AID 504728); type: functional
Beta-galactosidase = Beta-galactosidase (Escherichia coli, UniProt Q8VNN2); assay: detection-enzyme interference by beta-gal modulators – biochemical, E. coli enzyme, set 3, artefact control for CCR6 antagonist project, dose response (AID 504712); type: functional
[22] = biological target: ALK tyrosine kinase receptor (Homo sapiens, UniProt Q9UM73); type: functional;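 also: ALK tested as one member of a kinase panel screen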
ALK tyrosine kinase receptor, sequence (Q9UM73 whole entry): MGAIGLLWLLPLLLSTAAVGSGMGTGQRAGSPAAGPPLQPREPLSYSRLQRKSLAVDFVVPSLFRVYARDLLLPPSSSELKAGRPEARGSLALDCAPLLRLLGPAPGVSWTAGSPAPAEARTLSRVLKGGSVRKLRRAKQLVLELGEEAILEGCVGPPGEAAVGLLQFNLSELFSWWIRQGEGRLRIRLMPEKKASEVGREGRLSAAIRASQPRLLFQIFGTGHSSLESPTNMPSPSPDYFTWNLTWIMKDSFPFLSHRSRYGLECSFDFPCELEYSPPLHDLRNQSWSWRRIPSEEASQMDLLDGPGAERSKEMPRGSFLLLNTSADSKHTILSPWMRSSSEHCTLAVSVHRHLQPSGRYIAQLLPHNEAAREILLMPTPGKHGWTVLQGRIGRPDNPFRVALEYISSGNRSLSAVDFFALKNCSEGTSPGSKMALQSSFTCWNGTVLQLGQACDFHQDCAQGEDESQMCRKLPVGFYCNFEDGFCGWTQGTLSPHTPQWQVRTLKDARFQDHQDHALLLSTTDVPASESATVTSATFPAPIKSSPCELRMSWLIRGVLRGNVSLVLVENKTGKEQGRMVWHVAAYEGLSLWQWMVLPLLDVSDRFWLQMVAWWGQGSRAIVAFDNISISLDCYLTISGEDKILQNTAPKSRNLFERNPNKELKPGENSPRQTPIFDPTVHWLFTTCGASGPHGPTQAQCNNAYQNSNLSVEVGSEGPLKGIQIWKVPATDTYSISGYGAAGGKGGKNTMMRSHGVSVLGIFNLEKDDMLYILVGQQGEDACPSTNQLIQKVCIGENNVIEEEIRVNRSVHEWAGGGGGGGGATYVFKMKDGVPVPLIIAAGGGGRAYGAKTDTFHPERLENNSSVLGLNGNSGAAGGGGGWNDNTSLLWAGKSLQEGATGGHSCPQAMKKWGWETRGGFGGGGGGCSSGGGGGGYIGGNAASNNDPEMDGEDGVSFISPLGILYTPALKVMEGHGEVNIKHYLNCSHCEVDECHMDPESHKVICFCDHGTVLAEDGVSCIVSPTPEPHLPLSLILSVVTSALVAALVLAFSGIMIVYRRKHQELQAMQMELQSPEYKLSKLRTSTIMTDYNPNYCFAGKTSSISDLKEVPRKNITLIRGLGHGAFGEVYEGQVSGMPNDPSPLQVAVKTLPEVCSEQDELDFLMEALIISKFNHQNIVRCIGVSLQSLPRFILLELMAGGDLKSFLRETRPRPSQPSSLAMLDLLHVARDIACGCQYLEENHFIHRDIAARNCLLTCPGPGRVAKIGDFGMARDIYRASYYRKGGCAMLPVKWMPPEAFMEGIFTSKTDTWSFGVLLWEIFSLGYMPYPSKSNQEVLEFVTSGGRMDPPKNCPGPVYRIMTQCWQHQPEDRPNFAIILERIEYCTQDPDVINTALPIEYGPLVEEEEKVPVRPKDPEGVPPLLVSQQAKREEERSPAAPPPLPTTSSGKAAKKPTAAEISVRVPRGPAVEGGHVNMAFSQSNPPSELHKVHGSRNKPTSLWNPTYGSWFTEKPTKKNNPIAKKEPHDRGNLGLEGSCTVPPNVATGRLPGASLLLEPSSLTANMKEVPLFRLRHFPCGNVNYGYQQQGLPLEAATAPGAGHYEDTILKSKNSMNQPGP

Wee1-like protein kinase = Wee1-like protein kinase (Homo sapiens, UniProt P30291); assay: Navigating the Kinome. Panel member name: WEE1; type: functional
[23] = biological target: Cell division cycle 7-related protein kinase (Homo sapiens, UniProt O00311); type: functional;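 also: value obtained from a kinome-wide kinase panel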
[24] = biological target: Mitogen-activated protein kinase kinase kinase kinase 4 (Homo sapiens, UniProt O95819); type: functional
[25] = biological target: Homeodomain-interacting protein kinase 2 (Homo sapiens, UniProt Q9H2X6); type: functional;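 also: measured within a kinome-wide kinase profiling panel, HIPK2 being one panel member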
[26] = biological target: T3, Glycogen synthase kinase-3 beta; type: functional
[27] = biological target: Serine/threonine-protein kinase pim-1 (Homo sapiens, UniProt P11309); type: functional
[28] = biological target: Interleukin-1 receptor-associated kinase 4 (Homo sapiens, UniProt Q9NWZ3); type: functional
[29] = biological target: cAMP-dependent protein kinase catalytic subunit alpha (Homo sapiens, UniProt P17612); type: functional
[30] = biological target: DNA dC->dU-editing enzyme APOBEC-3G (Homo sapiens, UniProt Q9HC16); assay: inhibition of APOBEC3G ssDNA deamination – biochemical, fluorescence, single-stranded DNA substrate, SAR follow-up (AID 602136); type: functional; settings: read-out: IC50_Mean
[31] = biological target: DNA dC->dU-editing enzyme APOBEC-3A (Homo sapiens, UniProt P31941); assay: SAR analysis of small molecule inhibitors of APOBEC3A DNA Deaminase via a fluorescence-based single-stranded DNA deaminase assay.; type: functional; settings: read-out: IC50_Mean
[32] = biological target: Cyclin-dependent kinase 19 (Homo sapiens, UniProt Q9BWU1); assay: Navigating the Kinome. Panel member name: CDC2L6; type: functional
[33] = biological target: 3-phosphoinositide-dependent protein kinase 1 (Homo sapiens, UniProt O15530); type: functional;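 also: value comes from the Navigating the Kinome panel, PDPK1 member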
[34] = biological target: Protein kinase C zeta type (Homo sapiens, UniProt Q05513); type: functional;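 also: measured as one member of a broad kinase profiling panel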
Protein skinhead-1 = biological target: T7, Protein skinhead-1 (Caenorhabditis elegans, UniProt P34707); type: functional
T7 sequence (P34707 whole entry): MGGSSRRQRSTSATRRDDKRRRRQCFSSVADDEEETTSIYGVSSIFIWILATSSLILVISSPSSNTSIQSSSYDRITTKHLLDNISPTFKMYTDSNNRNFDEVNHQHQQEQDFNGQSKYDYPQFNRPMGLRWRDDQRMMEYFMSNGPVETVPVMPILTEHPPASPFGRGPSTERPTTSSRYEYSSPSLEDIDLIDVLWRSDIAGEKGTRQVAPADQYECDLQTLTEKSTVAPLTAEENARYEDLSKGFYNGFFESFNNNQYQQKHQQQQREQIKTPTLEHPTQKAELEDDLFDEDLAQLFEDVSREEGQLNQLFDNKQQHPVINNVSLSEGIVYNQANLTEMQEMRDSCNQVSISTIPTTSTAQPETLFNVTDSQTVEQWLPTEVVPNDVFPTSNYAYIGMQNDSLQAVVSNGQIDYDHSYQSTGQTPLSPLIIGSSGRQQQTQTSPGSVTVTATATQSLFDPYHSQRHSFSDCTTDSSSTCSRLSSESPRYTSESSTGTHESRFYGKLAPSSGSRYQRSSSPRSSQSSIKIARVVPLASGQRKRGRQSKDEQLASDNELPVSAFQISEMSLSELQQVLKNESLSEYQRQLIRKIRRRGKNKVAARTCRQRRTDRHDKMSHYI

[35] = biological target: Beta-adrenergic receptor kinase 1 (Homo sapiens, UniProt P25098); assay: aptamer displacement from bead-bound GRK2 – biochemical, cherry pick 1, bead flow cytometry, dose response (AID 504500)
[36] = biological target: T6, Heat shock protein HSP 90-alpha; assay: Luminescence-based dose response biochemical high throughput screening assay for inhibitors of the Heat Shock Protein 90 (HSP90). [Related pubchem assays: 1831 (Summary AID.), 1846 (Confirmation screen.), 1789 (Primary screen.)]
[37] = biological target: T8, Beta-2 adrenergic receptor (Homo sapiens, UniProt P07550); assay: ADRB2 activation measured by internalization – cell-based, FAP fluorogen, flow cytometry, cherry pick 1, dose response (AID 588763); type: functional
T8 sequence (P07550 whole entry): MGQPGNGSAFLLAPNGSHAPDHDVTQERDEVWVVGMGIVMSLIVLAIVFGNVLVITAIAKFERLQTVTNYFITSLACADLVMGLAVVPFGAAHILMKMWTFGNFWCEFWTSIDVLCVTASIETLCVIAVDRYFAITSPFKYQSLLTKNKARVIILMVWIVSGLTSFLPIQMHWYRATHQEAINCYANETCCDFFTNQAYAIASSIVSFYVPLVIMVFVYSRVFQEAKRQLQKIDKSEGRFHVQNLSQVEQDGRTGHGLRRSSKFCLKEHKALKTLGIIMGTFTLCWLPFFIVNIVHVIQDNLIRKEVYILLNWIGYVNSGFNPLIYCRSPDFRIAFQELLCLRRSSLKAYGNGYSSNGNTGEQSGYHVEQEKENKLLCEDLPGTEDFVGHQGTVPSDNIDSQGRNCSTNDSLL

[38] = biological target: T8, Beta-2 adrenergic receptor; assay: Dose response for HTS for Beta-2AR agonists via FAP method from Powderset3.; type: functional

T1 sequence (O14939 whole entry): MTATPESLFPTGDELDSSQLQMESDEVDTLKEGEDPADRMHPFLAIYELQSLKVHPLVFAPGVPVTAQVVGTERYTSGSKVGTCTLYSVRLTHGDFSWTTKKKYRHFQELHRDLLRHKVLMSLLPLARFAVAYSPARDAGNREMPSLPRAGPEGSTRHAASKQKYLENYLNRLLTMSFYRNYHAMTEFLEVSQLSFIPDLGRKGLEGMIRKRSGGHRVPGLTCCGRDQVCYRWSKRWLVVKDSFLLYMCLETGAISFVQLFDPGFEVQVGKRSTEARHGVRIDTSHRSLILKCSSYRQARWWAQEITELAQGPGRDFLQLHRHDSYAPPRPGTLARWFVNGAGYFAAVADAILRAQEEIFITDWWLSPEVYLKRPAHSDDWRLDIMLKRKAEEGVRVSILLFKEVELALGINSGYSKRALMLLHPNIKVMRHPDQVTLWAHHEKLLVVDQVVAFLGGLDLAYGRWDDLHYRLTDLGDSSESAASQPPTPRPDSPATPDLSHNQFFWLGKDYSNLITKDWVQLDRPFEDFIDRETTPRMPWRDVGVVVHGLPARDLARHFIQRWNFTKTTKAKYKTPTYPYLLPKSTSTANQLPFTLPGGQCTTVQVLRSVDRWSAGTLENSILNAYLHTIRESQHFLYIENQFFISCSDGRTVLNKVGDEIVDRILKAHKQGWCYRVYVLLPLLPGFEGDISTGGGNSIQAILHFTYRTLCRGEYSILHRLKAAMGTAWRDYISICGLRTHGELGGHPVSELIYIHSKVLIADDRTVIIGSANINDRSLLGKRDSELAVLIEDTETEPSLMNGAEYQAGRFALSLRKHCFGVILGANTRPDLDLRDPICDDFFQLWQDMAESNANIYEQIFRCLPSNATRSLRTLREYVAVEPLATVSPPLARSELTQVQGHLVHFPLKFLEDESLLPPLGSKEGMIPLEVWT

- AC50 [5]: 0.325 µM (active)
- AC50 [6]: 9.28 µM (active)
- AC50 [7]: 0.422 µM (active)
Compound: Nc1nonc1-n1nnc(C(=O)N/N=C/c2ccccc2F)c1-c1cccs1

- AC50 [8]: 0.395 µM (active)
- AC50 [9]: 1.67 µM (active)
Compound: COC(=O)c1ccc(CSc2nnc(-c3ccncc3)o2)cc1

- AC50 (HSP90): 8.36 µM (active)
- AC50 [20]: 6.15 µM (active)
- IC50 [21]: > 66.6 µM (inactive)
- IC50 (Beta-galactosidase): > 66.6 µM (inactive)
Compound: Oc1ccc(Cl)c2cccnc12 [CLOXYQUIN]

- Ki [22]: 1 µM (active)
- Ki [32]: 5.01 µM (active)
Compound: COc1ccccc1Nc1nc(Nc2cnn(C)c2)ncc1Br

- Ki [33]: 2.51 µM (active)
- Ki [34]: 2.51 µM (active)
Compound: O=C(NCc1ccc(Br)cc1)c1cnn2c(-c3ccccc3)ccnc12

- IC50 (Protein skinhead-1): > 100 µM (inactive)
- EC50 [35]: 3.5 µM (active)
- IC50 [36]: 4.57 µM (active)
Compound: Cc1cc2ccccc2n1CCNC(=O)c1cccs1

- EC50 [37]: 2.18 µM (active)
- EC50 [38]: 1.51 µM (active)
Compound: Cc1ccc(NC(=O)C(c2ccc(Cl)cc2)N2CCOCC2)cc1 (stereo not given)

Second part, the molecule before the results:

Compound: C[C@@H](CN1CCC(n2c(=O)[nH]c3ccccc32)CC1)NC(=O)COc1ccccc1
- IC50 (Phospholipase D2 [1]): 3.8 µM (active)
- IC50 (Phospholipase D1 [2]): 0.057 µM (active)
- IC50 (Phospholipase D1 [3]): 0.002 µM (active)
- IC50 (Phospholipase D2 [4]): 5.8 µM (active)

Compound: CC(=O)O[C@]1(C(C)=O)CC[C@H]2[C@@H]3C=C(Cl)C4=CC(=O)[C@@H]5C[C@H]5[C@]4(C)[C@H]3CC[C@@]21C
- AC50 [10]: 35.5 µM (inconclusive)

Compound: CCOc1cc(/C=C2\SC(=O)N(CC(=O)Nc3ccccc3F)C2=O)cc([N+](=O)[O-])c1O
- IC50 [11]: 9.89 µM (active)
- IC50 (Cysteine protease ATG4B): 9.16 µM (active)
- IC50 [12]: 43.6 µM (active)
- IC50 (Phospholipase A2): 7.23 µM (active)
- IC50 [13]: 26.9 µM (active)

Compound: Cc1c(NC2CCC(N)CC2)nc2ccnn2c1Nc1ccc(F)c(Cl)c1 (stereo not given)
- Ki [14]: 10 µM (active)
- Ki [15]: 7.94 µM (active)
- Ki [16]: 2 µM (active)
- Ki [17]: 3.98 µM (active)
- Ki [18]: 3.98 µM (active)
- Ki [19]: 7.94 µM (active)

Compound: CCN1CCN(c2ccc(Nc3ncc(C)c(Nc4ccc5[nH]ncc5c4)n3)cc2)CC1
- Ki [22]: 0.0398 µM (active)
- Ki (Wee1-like protein kinase): 0.0158 µM (active)

Compound: OCCCCNc1cc(-c2c[nH]c3ncccc23)cc(Cl)n1
- Ki [23]: 0.000794 µM (active)
- Ki [24]: 0.00316 µM (active)
- Ki [25]: 0.0251 µM (active)
- Ki [26]: 0.1 µM (active)
- Ki [27]: 0.501 µM (active)
- Ki [28]: 5.01 µM (active)
- Ki [29]: 0.251 µM (active)

Compound: c1ccc2c(c1)OCC(c1nnc3c4c5c(sc4ncn13)CCCC5)O2 (stereo not given)
- IC50 [30]: > 99 µM (inactive)
- IC50 [31]: > 99 µM (inactive)
